Measurements as given in patent US20040037843A1, “Inducing cellular immune responses to prostate cancer antigens using peptide and nucleic acid compositions” (priority 2003, published 2004).

Target: HLA-A*0201 (Homo sapiens, UniProt P04439, D140Y/D185E/D98H/E176V/E277Q/G131W/G231S/I119V/I121R/I166T/I218V/L300P/L318F/N151K/N90K/P208A/P217A/Q86G/Q94H/R138H/R169H/T345S)
Experiment: HLA class I binding assay, purified HLA, inhibition of 125I-labelled probe peptide
Details: Binding affinity, Table XXII group headings ≦ 200 nM / > 200 nM; binding to HLA-A*0201

Row | Structure (SMILES) | IC50
1 | CC(C)C[C@H](NC(=O)[C@H](CC(C)C)NC(=O)CNC(=O)[C@H](CC(N)=O)NC(=O)[C@H](Cc1ccc(O)cc1)NC(=O)[C@@H](NC(=O)[C@H](CC(=O)O)NC(=O)[C@H](CC(C)C)NC(=O)[C@H](C)N)C(C)C)C(=O)O [PAP.299] | ≤ 0.2 µM

Same assay, conditions: Table XXII group headings ≦ 200 nM / > 200 nM; binding to HLA-A*0201; read-out: Binding affinity

Row | IC50 | Structure (SMILES)
2 | ≤ 0.2 µM | CC(C)C[C@H](NC(=O)[C@H](CO)NC(=O)[C@H](CC(C)C)NC(=O)[C@H](CO)NC(=O)[C@H](C)NC(=O)[C@H](C)NC(=O)[C@H](CCCNC(=N)N)NC(=O)[C@H](C)NC(=O)[C@H](CC(C)C)NC(=O)[C@H](CC(C)C)NC(=O)[C@@H](N)CC(C)C)C(=O)O [PAP.6]
3 | ≤ 0.2 µM | CC(C)C[C@H](NC(=O)[C@@H](N)Cc1ccccc1)C(=O)N[C@@H](CC(N)=O)C(=O)N[C@@H](CCC(=O)O)C(=O)N[C@@H](CO)C(=O)N[C@@H](Cc1ccc(O)cc1)C(=O)N[C@@H](CCCCN)C(=O)N[C@@H](Cc1c[nH]cn1)C(=O)N[C@@H](CCC(=O)O)C(=O)N[C@@H](CCC(N)=O)C(=O)N[C@H](C(=O)O)C(C)C [PAP.92]
4 | > 0.2 µM | CC(C)C[C@H](NC(=O)[C@@H](N)CC(C)C)C(=O)N[C@@H](Cc1c[nH]cn1)C(=O)N[C@@H](CCC(=O)O)C(=O)N[C@H](C(=O)N[C@@H](CC(=O)O)C(=O)N[C@@H](CO)C(=O)N[C@@H](C)C(=O)N[C@H](C(=O)O)C(C)C)[C@@H](C)O [PSM.4]
5 | > 0.2 µM | CC(C)C[C@H](NC(=O)[C@H](Cc1ccccc1)NC(=O)[C@H](Cc1ccccc1)NC(=O)CNC(=O)CNC(=O)[C@H](C)NC(=O)[C@H](CC(C)C)NC(=O)[C@@H](NC(=O)[C@H](CC(C)C)NC(=O)[C@H](C)N)C(C)C)C(=O)O [PSM.25]
6 | ≤ 0.2 µM | CC(C)C[C@H](NC(=O)[C@H](Cc1ccccc1)NC(=O)[C@H](Cc1ccccc1)NC(=O)CNC(=O)CNC(=O)[C@H](C)NC(=O)[C@H](CC(C)C)NC(=O)[C@@H](NC(=O)[C@@H](N)CC(C)C)C(C)C)C(=O)O [PSM.26]
7 | > 0.2 µM | CC(C)C[C@H](NC(=O)CN)C(=O)N[C@@H](CC(C)C)C(=O)NCC(=O)N[C@@H](CO)C(=O)N[C@H](C(=O)N[C@@H](CCC(=O)O)C(=O)N[C@@H](Cc1c[nH]c2ccccc12)C(=O)N[C@@H](C)C(=O)O)[C@@H](C)O [PSM.427]
8 | > 0.2 µM | CC(C)C[C@H](NC(=O)[C@@H](N)CCCCN)C(=O)NCC(=O)N[C@@H](CO)C(=O)NCC(=O)N[C@@H](CC(N)=O)C(=O)N[C@@H](CC(=O)O)C(=O)N[C@@H](Cc1ccccc1)C(=O)N[C@@H](CCC(=O)O)C(=O)N[C@H](C(=O)O)C(C)C [PSM.514]
9 | ≤ 0.2 µM | CC[C@H](C)[C@H](NC(=O)[C@H](Cc1ccccc1)NC(=O)[C@H](C)NC(=O)[C@H](CCCNC(=N)N)NC(=O)[C@H](CCC(=O)O)NC(=O)[C@H](CC(C)C)NC(=O)[C@H](Cc1ccccc1)NC(=O)[C@H](CCSC)NC(=O)[C@H](CC(C)C)NC(=O)[C@@H](N)CCC(N)=O)C(=O)O [PSM.667]

System: .221A2.1 peptide-loaded target cells and cells expressing endogenous antigen
Experiment: Primary in vitro CTL induction with peptide-pulsed DC, CTL lytic activity by 51Cr release
Assay type: cell-based, human
Details: immunogenicity, CTL recognition of the peptide, positive/tested
Experimental: Testing was performed using the following methodology:
Cells that express an antigen of interest, or transfectants comprising the gene encoding the antigen of interest, can be used as target cells to test the ability of peptide-specific CTLs to recognize endogenous antigen.
The monocytes are purified by plating 10×10^6 PBMC/well in a 6-well plate. After 2 hours at 37° C., the non-adherent cells are removed by gently shaking the plates and aspirating the supernatants. The wells are washed a total of three times with 3 ml RPMI to remove most of the non-adherent and loosely adherent cells. Three ml of complete medium containing 50 ng/ml of GM-CSF and 1,000 U/ml of IL-4 are then added to each well. TNFα is added to the DCs on day 6 at 75 ng/ml and the cells are used for CTL induction cultures on day 7.
Induction of CTL with DC and Peptide: CD8+ T-cells are isolated by positive selection with Dynal imnmunomagnetic beads (Dynabeads® M-450) and the detacha-bead® reagent. Typically about 200-250×10^6 PBMC are processed to obtain 24×10^6 CD8^+T-cells (enough for a 48-well plate culture). Briefly, the PBMCs are thawed in RPMI with 30 μg/ml DNAse, washed once with PBS containing 1% human AB serum and resuspended in PBS/1% AB serum at a concentration of 20×10^6 cells/ml. The magnetic beads are washed 3 times with PBS/AB serum, added to the cells (140 μl beads/20×10^6 cells) and incubated for 1 hour at 4° C. with continuous mixing. The beads and cells are washed 4× with PBS/AB serum to remove the nonadherent cells and resuspended at 100×10^6 cells/ml (based on the original cell number) in PBS/AB serum containing 100 μl/ml detacha-bead® reagent and 30 μg/ml DNAse. The mixture is incubated for 1 hour at room temperature with continuous mixing. The beads are washed again with PBS/AB/DNAse to collect the CD8+ T-cells. The DC are collected and centrifuged at 1300 rpm for 5-7 minutes, washed once with PBS with 1% BSA, counted and pulsed with 40 μg/ml of peptide at a cell concentration of 1-2×10^6/ml in the presence of 3 μg/ml β2-microglobulin for 4 hours at 20° C. The DC are then irradiated (4,200 rads), washed 1 time with medium and counted again.
Setting up induction cultures: 0.25 ml cytokine-generated DC (@1×10^5 cells/ml) are co-cultured with 0.25 ml of CD8+ T-cells (@2×10^6 cell/ml) in each well of a 48-well plate in the presence of 10 ng/ml of IL-7. Recombinant human IL10 is added the next day at a final concentration of 10 ng/ml and rhuman IL2 is added 48 hours later at 10 IU/mL.
Restimulation of the induction cultures with peptide-pulsed adherent cells: Seven and fourteen days after the primary induction the cells are restimulated with peptide-pulsed adherent cells. The PBMCS are thawed and washed twice with RPMI and DNAse. The cells are resuspended at 5×10^6 cells/ml and irradiated at ˜4200 rads. The PBMCs are plated at 2×10^6 in 0.5 ml complete medium per well and incubated for 2 hours at 37° C. The plates are washed twice with RPMI by tapping the plate gently to remove the nonadherent cells and the adherent cells pulsed with 10 μg/ml of peptide in the presence of 3 μg/ml β2 microglobulin in 0.25 ml RPMI/5% AB per well for 2 hours at 37° C. Peptide solution from each well is aspirated and the wells are washed once with RPMI. Most of the media is aspirated from the induction cultures (CD8+ cells) and brought to 0.5 ml with fresh media. The cells are then transferred to the wells containing the peptide-pulsed adherent cells. Twenty four hours later rhuman IL10 is added at a final concentration of 10 ng/ml and rhuman IL2 is added the next day and again 2-3 days later at 50 IU/ml (Tsai et al., Critical Reviews in Immunology 18(1-2):65-75, 1998). Seven days later the cultures are assayed for CTL activity in a ^51Cr release assay. In some experiments the cultures are assayed for peptide-specific recognition in the in situ IFNγ ELISA at the time of the second restimulation followed by assay of endogenous recognition 7 days later. […]

Row | Structure (SMILES) | A2 peptide
10 | CC(C)C[C@H](NC(=O)[C@H](CC(=O)O)NC(=O)[C@@H](NC(=O)[C@H](CS)NC(=O)[C@H](CCC(N)=O)NC(=O)[C@H](CC(C)C)NC(=O)[C@@H](N)CCCCN)C(C)C)C(=O)N[C@@H](Cc1c[nH]cn1)C(=O)N[C@H](C(=O)O)C(C)C [Peptide 990.01] | 1/2
11 | CC[C@H](C)[C@H](N)C(=O)N[C@@H](CC(C)C)C(=O)N[C@@H](CC(C)C)C(=O)N[C@@H](Cc1c[nH]c2ccccc12)C(=O)N[C@@H](CCC(N)=O)C(=O)N1CCC[C@H]1C(=O)N[C@H](C(=O)N1CCC[C@H]1C(=O)N[C@H](C(=O)O)C(C)C)[C@@H](C)CC [Peptide 1044.04] | 5/5
12 | CC[C@H](C)[C@H](N)C(=O)N[C@@H](CCSC)C(=O)N[C@@H](Cc1ccc(O)cc1)C(=O)N[C@@H](CO)C(=O)N[C@@H](C)C(=O)N[C@@H](Cc1c[nH]cn1)C(=O)N[C@@H](CC(=O)O)C(=O)N[C@H](C(=O)N[C@H](C(=O)N[C@H](C(=O)O)C(C)C)[C@@H](C)O)[C@@H](C)O [Peptide 1097.05] | 3/3
13 | CC(C)C[C@H](NC(=O)[C@H](Cc1c[nH]c2ccccc12)NC(=O)[C@H](Cc1ccccc1)NC(=O)[C@H](Cc1ccccc1)NC(=O)[C@H](CC(C)C)NC(=O)[C@@H](N)CC(C)C)C(=O)N[C@@H](CC(=O)O)C(=O)N[C@@H](CCCNC(=N)N)C(=O)N[C@@H](CO)C(=O)N[C@H](C(=O)O)C(C)C [Peptide 1097.09] | 3/3
14 | CC(C)C[C@H](NC(=O)[C@H](CCC(=O)O)NC(=O)[C@H](CCCCN)NC(=O)[C@H](C)NC(=O)[C@H](CC(C)C)NC(=O)[C@@H](N)C(C)C)C(=O)N[C@@H](CCCCN)C(=O)N[C@@H](Cc1ccccc1)C(=O)N[C@H](C(=O)O)C(C)C [Peptide 1097.17] | 1/3
15 | CC(C)C[C@H](NC(=O)[C@H](CCCCN)NC(=O)[C@H](CCCCN)NC(=O)[C@@H]1CCCN1C(=O)[C@@H](NC(=O)[C@H](CC(C)C)NC(=O)[C@@H](N)Cc1ccccc1)[C@@H](C)O)C(=O)N[C@@H](CCC(N)=O)C(=O)N[C@@H](CS)C(=O)N[C@H](C(=O)O)C(C)C [Peptide 1098.02] | 3/4
16 | CSCC[C@H](NC(=O)[C@H](CC(C)C)NC(=O)[C@H](CCC(N)=O)NC(=O)[C@H](CC(=O)O)NC(=O)[C@H](CC(N)=O)NC(=O)[C@H](CCSC)NC(=O)[C@@H](N)CCSC)C(=O)N[C@@H](Cc1ccccc1)C(=O)N[C@@H](CC(C)C)C(=O)O [Peptide 1126.01] | 2/2
17 | CSCC[C@H](NC(=O)[C@H](CC(C)C)NC(=O)[C@H](CCC(N)=O)NC(=O)[C@H](CC(=O)O)NC(=O)[C@H](CC(N)=O)NC(=O)[C@H](CCSC)NC(=O)[C@H](CCSC)NC(=O)[C@@H](N)CCCNC(=N)N)C(=O)N[C@@H](Cc1ccccc1)C(=O)N[C@@H](CC(C)C)C(=O)O [Peptide 1126.06] | 1/1
18 | CC(C)C[C@H](NC(=O)[C@H](CC(C)C)NC(=O)[C@H](Cc1ccccc1)NC(=O)[C@H](Cc1ccccc1)NC(=O)CNC(=O)CNC(=O)[C@H](C)NC(=O)[C@H](CC(C)C)NC(=O)[C@@H](N)C(C)C)C(=O)O [Peptide 1126.10] | 1/2
19 | CSCC[C@H](NC(=O)[C@@H](N)CC(C)C)C(=O)N[C@@H](Cc1ccc(O)cc1)C(=O)N[C@@H](CO)C(=O)N[C@@H](CC(C)C)C(=O)N[C@H](C(=O)N[C@@H](Cc1c[nH]cn1)C(=O)N[C@@H](CC(N)=O)C(=O)N[C@@H](CC(C)C)C(=O)O)C(C)C [Peptide 1126.14] | 3/3
20 | CC[C@H](C)[C@H](NC(=O)[C@H](Cc1ccc(O)cc1)NC(=O)[C@H](C)NC(=O)[C@@H](NC(=O)CNC(=O)[C@H](CCCNC(=N)N)NC(=O)[C@H](CCC(=O)O)NC(=O)[C@H](CCC(N)=O)NC(=O)[C@H](CC(C)C)NC(=O)[C@@H](N)CC(C)C)C(C)C)C(=O)O [Peptide 1129.01] | 3/3
21 | CSCC[C@H](NC(=O)CN)C(=O)N1CCC[C@H]1C(=O)N[C@@H](CCC(=O)O)C(=O)NCC(=O)N[C@@H](CC(=O)O)C(=O)N[C@@H](CC(C)C)C(=O)N[C@H](C(=O)N[C@@H](Cc1ccc(O)cc1)C(=O)N[C@H](C(=O)O)C(C)C)C(C)C [Peptide 1129.04] | 0/1
